How the values were obtained:
Format in all cases: in vivo, Goto-Kakizaki rats (GK)
diabetic GK rats = experiment: Blood glucose and lipid in GK rats; conditions: different ratio experiment; GK rats, high fat diet, oral daily 12 weeks, total 20 mg/kg per Table 3
Source text: The GK (Goto-Kakizaki) rat is the spontaneous model of diabetes, the pathogenesis of GK rat is very similar to the pathogenesis of type 2 diabetes. After diabetes attack, hyperglycemia and insulin secretion weakened emerge rapidly, the latter diseases may be complicated by retinopathy, micro-vascular disease, neuropathy, nephropathy in GK rat. The GK rats have been widely used in type 2 diabetes study, so we choose GK rat as the animal model of the following experiment. […] Then they can be mixed or diluted in accordance with the dose and the ratio. 1.3 Goto-Kakizaki rats (GK) (4 months age, ♀♂) and Wistar rats (SPF level, ♀♂) were purchased from Shanghai SLAC laboratory animal Co., Ltd. In addition to the normal rats, the other rats were fed with high fat diet (20% protein and 3.5% cholesterol). After the rats was feeding adaptation for one week, The GK rats which the blood glucose level was more than 11.1 mmol/L were selected, and then divided into the following groups random: GK rats control group (n=10); mangiferin groups (10, 30, 200 mg/kg, each group 10 rats); berberine groups (10, 20, 150 mg/kg, each group 10 rats); composition group 1[[mangiferin (10 mg/kg)+berberine (10 mg/kg)], 10 rats]; composition group 2[[mangiferin (200 mg/kg)+berberine (150 mg/kg)], 10 rats]. Wistar rats are normal control group (10 rats). GK rats control group and Wistar rats group were given saline. The other groups were given test drugs. Test samples were administrated orally at the same time every day for 12 weeks. 3.1 Blood Glucose and lipid: The blood specimens were taken at the end of the test. Plasma glucose (GLU), triglycerides (TG), total cholesterol (TC) were determined by HITACHI7080 automatic biochemistry analyzer. […] The results have been calculated as mean±SD ( x±SD) and the comparisons of the data have been done by t-test. […] Mangiferin and berberine are prepared in accordance with the method of preparation of example 1 and 2. Then they can be mixed in accordance with the dose and the ratio such as table 3. 1.2 Animal: Goto-Kakizaki rats (GK) (4 months age, ♀♂) and Wistar rats (SPF level, ♀♂) were purchased from Shanghai SLAC laboratory animal Co., Ltd. In addition to the normal rats, the other rats were fed with high fat diet (20% protein and 3.5% cholesterol). After the rats was feeding adaptation for one week, GK rats that the blood glucose level of the GK rats was more than 11.1 mmol/L were selected, and then random divided into the following groups as follows (Table 3): There are ten rats in every group. GK rats control group and wistar rats group were given saline. The other groups were given test drugs. Test samples were administrated orally at the same time every day for 12 weeks. The measurements are as same as the above experiment.

aldose reductase (AR) = biological target: T1, aldose reductase (AR) (Rattus norvegicus, UniProt P07943); experiment: Activity of aldose reductase (AR) of lens in GK rats; conditions: different ratio experiment, oral daily 12 weeks, specific activity, in U/mg protein; for AR activity of lens NADH (0.1 mmol/L): total 20 mg/kg per Table 3, NADH 0.1 mmol/L system; for AR activity of lens NADPH (0.1 mmol/L): total 20 mg/kg per Table 3, NADPH 0.1 mmol/L system
T1 construct: from tissue; host or cells: lens of GK (Goto-Kakizaki) and Wistar rats
Method: GK rats control group (n=10); mangiferin groups (10, 30, 200 mg/kg, each group 10 rats); berberine groups (10, 20, 150 mg/kg, each group 10 rats); composition group 1[[mangiferin (10 mg/kg)+berberine (10 mg/kg)], 10 rats]; composition group 2[[mangiferin (200 mg/kg)+berberine (150 mg/kg)], 10 rats]. Wistar rats are normal control group (10 rats). GK rats control group and Wistar rats group were given saline. The other groups were given test drugs. Test samples were administrated orally at the same time every day for 12 weeks. […] At the End of the experiment, the left side lens of rats was taken, then these lenses were added into glycerol and put into refrigerator (−80° C.□) to preserve to determine AR activity. The determination method of AR activity refer to Maragoudakis's method and change slightly, that is: the activity of enzyme is indicated by the record of the absorbance of NADPH in 340 nm decline IOU. […] The second reaction system is 0.1 mmol/L NADH instead of NADPH, the rest of the reagent is same as one of the first response system. The activity of enzyme and the protein content in tissue homogenate are determined at the same time. a unit enzyme activity is indicated by the quantity of the enzyme that produce 1 μmol NADP^+ (or NDA^+) in one minute. […] The results have been calculated as mean±SD ( x±SD) and the comparisons of the data have been done by t-test. There are ten rats in every group. GK rats control group and wistar rats group were given saline. The other groups were given test drugs. Test samples were administrated orally at the same time every day for 12 weeks. The measurements are as same as the above experiment.

[1] = test system: Superoxidedismutase (SOD); experiment: Superoxidedismutase (SOD) in kidney tissue homogenate of GK rats; conditions: different ratio experiment, oral daily 12 weeks, total 20 mg/kg per Table 3
Method: GK rats control group (n=10); mangiferin groups (10, 30, 200 mg/kg, each group 10 rats); berberine groups (10, 20, 150 mg/kg, each group 10 rats); composition group 1[[mangiferin (10 mg/kg)+berberine (10 mg/kg)], 10 rats]; composition group 2[[mangiferin (200 mg/kg)+berberine (150 mg/kg)], 10 rats]. Wistar rats are normal control group (10 rats). GK rats control group and Wistar rats group were given saline. The other groups were given test drugs. Test samples were administrated orally at the same time every day for 12 weeks. 3.3.1 Preparation of tissue homogenate: Rats were killed by femoral artery bloodletting after administration of the rats for 12-weeks. Kidney tissue of the rats were taken, the blood of kidney tissue were washed with cooling saline (4° C.), then the remnant water was absorbed with filter paper, the kidney tissue was weighed. Per gram kidney tissue was added into 10 ml saline, which was put in homogenized machine (10,000 r/min, 10 seconds, 3rd), 10% tissue homogenate was prepared, the tissue homogenate was centrifuged (4000 r/min) for 10 minutes to get supernatant, the supernatant was saved in −20° C. for determination. […] SOD is determined by Xanthine Oxidase calorimetric analysis, the test box was bought from Nanjing Jiancheng Bioengineering Research Institute. […] The results have been calculated as mean±SD ( x±SD) and the comparisons of the data have been done by t-test. There are ten rats in every group. GK rats control group and wistar rats group were given saline. The other groups were given test drugs. Test samples were administrated orally at the same time every day for 12 weeks. The measurements are as same as the above experiment.

Propyl dialdehyde (MDA) = Propyl dialdehyde (MDA) in kidney tissue homogenate of GK rats; conditions: different ratio experiment, oral daily 12 weeks, total 20 mg/kg per Table 3
Method: GK rats control group (n=10); mangiferin groups (10, 30, 200 mg/kg, each group 10 rats); berberine groups (10, 20, 150 mg/kg, each group 10 rats); composition group 1[[mangiferin (10 mg/kg)+berberine (10 mg/kg)], 10 rats]; composition group 2[[mangiferin (200 mg/kg)+berberine (150 mg/kg)], 10 rats]. Wistar rats are normal control group (10 rats). GK rats control group and Wistar rats group were given saline. The other groups were given test drugs. Test samples were administrated orally at the same time every day for 12 weeks. 3.3.1 Preparation of tissue homogenate: Rats were killed by femoral artery bloodletting after administration of the rats for 12-weeks. Kidney tissue of the rats were taken, the blood of kidney tissue were washed with cooling saline (4° C.), then the remnant water was absorbed with filter paper, the kidney tissue was weighed. Per gram kidney tissue was added into 10 ml saline, which was put in homogenized machine (10,000 r/min, 10 seconds, 3rd), 10% tissue homogenate was prepared, the tissue homogenate was centrifuged (4000 r/min) for 10 minutes to get supernatant, the supernatant was saved in −20° C. for determination. 3.3.2.2 Propyl dialdehyde (MDA): MDA is determined by TBA, the test box was bought from Nanjing Jiancheng Bioengineering Research Institute. […] The results have been calculated as mean±SD ( x±SD) and the comparisons of the data have been done by t-test. There are ten rats in every group. GK rats control group and wistar rats group were given saline. The other groups were given test drugs. Test samples were administrated orally at the same time every day for 12 weeks. The measurements are as same as the above experiment.

| AR activity of lens NADH (0.1 mmol/L) (aldose reductase (AR)) | AR activity of lens NADPH (0.1 mmol/L) (aldose reductase (AR)) | SMILES | GLU (diabetic GK rats) | Lipid TC (diabetic GK rats) | Lipid TG (diabetic GK rats) | Measurements about oxidation SOD [1] | Measurements about oxidation MDA (Propyl dialdehyde (MDA)) |
| --- | --- | --- | --- | --- | --- | --- | --- |
| 1.97 ± 0.46 | 3.11 ± 0.56 | O=c1c2cc(O)c(O)cc2oc2cc(O)c(C3OC(CO)C(O)C(O)C3O)c(O)c12 (centres unmarked) [Composition A] | 14.11 ± 2.03 mmol/L | 3.26 ± 0.26 mmol/L | 2.79 ± 0.30 mmol/L | 168.26 ± 13.50 U/mg pro | 3.43 ± 0.89 nmol/mg pro |
| 1.39 ± 0.53 | 2.48 ± 0.58 | COc1ccc2cc3[n+](cc2c1OC)CCc1cc2c(cc1-3)OCO2 [Composition H] | 12.34 ± 2.09 mmol/L | 3.33 ± 0.26 mmol/L | 2.91 ± 0.09 mmol/L | 171.10 ± 13.81 U/mg pro | 3.52 ± 0.77 nmol/mg pro |

— US7867979B2, “Drug composition for treating 2 type diabetes and diabetic chronicity complications” (Hainan Deze Drug Research Co., Ltd., priority 2006, dated 2011)
